Measurements published in patent US20020137929A1, “1 - (3-heterocyclylphenyl) isothiourea, -isourea, -guanidine and -amidine herbicidal agents” (Intellectual Property Department, BASF Aktiengesellschaft, priority 1998, published 2002).

Assays:
[1] = test system: GLXMA (Soybean); assay: Preemergence herbicidal evaluation; format: in vivo, Glycine max; settings: rated 4-5 weeks after treatment
From the text: (§1) Results of herbicide evaluation are expressed on a rating scale (0-9). The scale is based upon a visual observation of plant stand, vigor, malformation, size, chlorosis and overall plant appearance as compared with a control.
(§2) The preemergence herbicidal activity of the test compounds of the present invention is exemplified by the following tests in which the seeds of a variety of monocotyledonous and dicotyledonous plants are separately mixed with potting soil and planted on top of approximately one inch of soil in separate pint cups. After planting, the cups are sprayed with the selected aqueous acetone solution containing test compound in sufficient quantity to provide the equivalent of about 0.0156 to 0.500 kg per hectare of test compound per cup. The treated cups are then placed on greenhouse benches, watered and cared for in accordance with conventional greenhouse procedures. From four to five weeks after treatment, the tests are terminated and each cup is examined and rated according to the rating system provided in Example 37.
(§3) The compounds evaluated are reported by compound number given in Example 37.

[2] = test system: CYPIR (Rice Flatsedge); assay: Preemergence weed control under flooded paddy conditions; format: in vivo, Cyperus iria; settings: rated 3-4 weeks after treatment
Method in brief: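 First, seeds or propagules go into the top 0.5 cm of silt loam; next, water is held 1.5 to 3 cm over the soil; then compound (50/50 acetone/water) is pipetted into it at about 0.0313 to 0.500 kg/ha; finally plants are rated visually 0-9 after three to four weeks.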

[3] = test system: IPOSS (Morningglory Spp.); assay: Postemergence herbicidal evaluation; format: in vivo, Ipomoea Spp.
Method in brief: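 Two-week seedlings sprayed postemergence at 40 psi; formulation: 1:1 acetone/water, 0.5% TWEEN 20; application ≈0.0156–0.500 kg/ha. Greenhouse grow-out, then 0–9 visual scoring at 4–5 weeks.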

[4] = test system: GLXMA (Soybean); assay: Postemergence herbicidal evaluation; format: in vivo, Glycine max
Protocol: In the tests, seedling plants are grown in jiffy flats for about two weeks. The test compounds are dispersed in 50/50 acetone/water mixtures containing 0.5% TWEEN®20, a polyoxyethylene sorbitan monolaurate surfactant of Atlas Chemical Industries, in sufficient quantities to provide the equivalent of about 0.0156 kg to 0.500 kg per hectare of active compound when applied to the plants through a spray nozzle operating at 40 psi for a predetermined time. After spraying, the plants are placed on greenhouse benches and are cared for in accordance with conventional greenhouse procedures. From four to five weeks after treatment, the seedling plants are examined and rated according to the rating system set forth below. Where more than one test is involved for a given compound, the data are averaged.
Plant species employed in these evaluations are reported by header abbreviation, common name and scientific name.
as §1

[5] = test system: ORYSAT (Rice, Tebonnet); assay: Rice tolerance to post-transplant applications, flooded paddy conditions (Table III); format: in vivo, Oryza sativa, (L.) Tebonnet; settings: in vivo
Method in brief: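 Injury scored 0-9 by eye against untreated control, judging stand, vigor, malformation, size and chlorosis, three to four weeks after treatment. Compound in 50/50 aqueous/acetone, about 0.0313 to 0.500 kg/ha, was applied to paddy water (1.5 to 3 cm depth) three days after transplanting paired ten-day-old Tebonnet rice seedlings.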

[6] = test system: AMBEL (Ragweed, Common); assay: Preemergence herbicidal evaluation; format: in vivo, Ambrosia artemisifolia; settings: rated 4-5 weeks after treatment
Method in brief: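 Each species is sown separately in potting soil over roughly an inch of soil before any emergence. The soil surface then receives an aqueous acetone spray delivering about 0.0156 to 0.500 kg/ha of compound. After four to five weeks, injury is scored from 0 to 9 relative to a control.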

[7] = test system: ORYSAT (Rice, Tebonnet); assay: Rice tolerance to post-transplant applications, flooded paddy conditions (Table IV); format: in vivo, Oryza sativa, (L.) Tebonnet; settings: in vivo
Method in brief: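 Post-transplant paddy test in greenhouse: a.i. about 0.0313 to 0.500 kg/ha applied into the flood water. Plants are rated 0-9 for overall appearance relative to control three to four weeks on.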

[8] = test system: IPOSS (Morningglory Spp.); assay: Preemergence herbicidal evaluation; format: in vivo, Ipomoea Spp.; settings: rated 4-5 weeks after treatment
From the text: as §1, §2, §3

[9] = test system: MOOVA (Monochoria); assay: Postemergence weed control under flooded paddy conditions; format: in vivo, Monochoria vaginalis; settings: postemergence weeds, 3-4 weeks after treatment
Method in brief: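 Flood-water application, about 0.0313–0.500 kg/ha a.i. in aqueous/acetone 50/50 v/v; water depth 1.5–3 cm throughout. Weeds 3–5 cm, rice 1.5–2.5 leaf. Greenhouse; 0–9 visual rating vs control at 3–4 wk.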

Structure (SMILES)	GLXMA preemergence herbicidal rating ([1]; rate 0.1250 kg/ha)	GLXMA preemergence herbicidal rating ([1]; rate 0.2500 kg/ha)	GLXMA preemergence herbicidal rating ([1]; rate 0.5000 kg/ha)	Herbicidal rating CYPIR ([2]; 0.0313 kg/ha)	Herbicidal rating CYPIR ([2]; 0.0625 kg/ha)	Herbicidal rating CYPIR ([2]; 0.1250 kg/ha)	Herbicidal rating CYPIR ([2]; 0.2500 kg/ha)	Herbicidal rating ORYSAT (rice tolerance) [5]	AMBEL preemergence herbicidal rating ([6]; rate 0.1250 kg/ha)	AMBEL preemergence herbicidal rating ([6]; rate 0.2500 kg/ha)	AMBEL preemergence herbicidal rating ([6]; rate 0.5000 kg/ha)	Herbicidal rating ORYSAT (rice tolerance) [7]	Herbicidal rating MOOVA ([9]; rate 0.0313 kg/ha)	Herbicidal rating MOOVA ([9]; rate 0.0625 kg/ha)	Herbicidal rating MOOVA ([9]; rate 0.1250 kg/ha)	Herbicidal rating MOOVA ([9]; rate 0.2500 kg/ha)	further results
CCC1SC(=Nc2cc(N3C(=O)C4=C(CCCC4)C3=O)c(F)cc2Cl)N(C)C1=O (stereo not shown) [Compound 6, N-{4-chloro-5-[(5-ethyl-3-methyl-4-oxo-2-thiazolidinylidene)amino]-2-fluorophenyl}-1-cyclohexene-1,2-dicarboximide]	0.0	0.0	0.0	0.0	2.0	4.0	6.0	0.0	0.0	0.0	0.0	0.0	1.0	4.0	4.0	4.5	Herbicidal rating CYPIR ([2]; 0.5000 kg/ha): 7.0; IPOSS herbicidal rating ([3]; rate 0.0157 kg/ha): 0.0; IPOSS herbicidal rating ([3]; rate 0.0313 kg/ha): 0.0; IPOSS herbicidal rating ([3]; rate 0.0625 kg/ha): 0.0; IPOSS herbicidal rating ([3]; rate 0.1250 kg/ha): 2.0; IPOSS herbicidal rating ([3]; rate 0.2500 kg/ha): 4.0; IPOSS herbicidal rating ([3]; rate 0.5000 kg/ha): 9.0; GLXMA herbicidal rating ([4]; rate 0.0157 kg/ha): 3.0; GLXMA herbicidal rating ([4]; rate 0.0313 kg/ha): 3.0; GLXMA herbicidal rating ([4]; rate 0.0625 kg/ha): 3.0; GLXMA herbicidal rating ([4]; rate 0.1250 kg/ha): 3.5; GLXMA herbicidal rating ([4]; rate 0.2500 kg/ha): 4.0; GLXMA herbicidal rating ([4]; rate 0.5000 kg/ha): 4.0; IPOSS preemergence herbicidal rating ([8]; rate 0.1250 kg/ha): 0.0; IPOSS preemergence herbicidal rating ([8]; rate 0.2500 kg/ha): 0.0; IPOSS preemergence herbicidal rating ([8]; rate 0.5000 kg/ha): 0.0; Herbicidal rating MOOVA ([9]; rate 0.5000 kg/ha): 4.5
CCOC(=O)CN1C(=O)C(CC(=O)O)S/C1=N/c1cc(-n2c(=O)cc(C(F)(F)F)n(C)c2=O)c(F)cc1Cl (stereo not shown) [Compound 16]	2.0	3.5	7.0	0.0	0.0	4.0	9.0	0.0	8.5	8.9	9.0	0.0	9.0	9.0	9.0	3.0	GLXMA preemergence herbicidal rating ([1]; rate 0.0156 kg/ha): 0.0; GLXMA preemergence herbicidal rating ([1]; rate 0.0313 kg/ha): 0.0; GLXMA preemergence herbicidal rating ([1]; rate 0.0625 kg/ha): 2.0; AMBEL preemergence herbicidal rating ([6]; rate 0.0156 kg/ha): 2.3; AMBEL preemergence herbicidal rating ([6]; rate 0.0313 kg/ha): 4.5; AMBEL preemergence herbicidal rating ([6]; rate 0.0625 kg/ha): 7.8
